In PMC8284666, “Biochemical characterization of protease activity of Nsp3 from SARS-CoV-2 and its inhibition by nanobodies” (PLoS ONE, 2021):
Where two headings read alike, the source gives them in different places.

Columns and labels:
[1] = biological target: PLpro from SARS-CoV-2 (Severe acute respiratory syndrome coronavirus 2, UniProt P0DTC1); test: biochemical; conditions: for inhibition at 10 µM: read-out: percentage inhibition in the HTS
[2] = biological target: T1, Nsp3^core (Severe acute respiratory syndrome coronavirus 2, UniProt P0DTC1); test: biochemical
[3] = biological target: T1, Nsp3^core; assay type: biochemical
[4] = test system: SARS-CoV-2 PLpro; conditions: cited from earlier work
[5] = test system: PLpro^CoV-1; conditions: read-out: IC50 against PLpro^CoV-1; cited from earlier work
[6] = test system: panel of 42 human DUBs and the viral ovarian tumor (vOTU); assay type: biochemical; conditions: tested at 10 and 1 μM; result in words
[7] = biological target: SARS-CoV-2 Nsp3 residues 743-1072 (PL-pro), purified, tags removed (SARS-CoV-2, Wuhan-Hu-1 (MN908947.3), UniProt P0DTD1); test: ITC; conditions: both partners purified
[8] = screened in duplicate at 10 μM, hit criterion

| Molecule | IC50 [1] | IC50 [2] | selectivity / off-target inhibition in the DUB panel [6] | other results |
| --- | --- | --- | --- | --- |
| Nc1nc2nc[nH]c2c(=S)[nH]1 [Thioguanine] | 4.54 µM |  |  |  |
| CC(Cc1ccc(O)c(O)c1)C(C)Cc1ccc(O)c(O)c1 (stereo not shown) [Nordihydroguaiaretic acid] | 1.06 µM | 1.62 µM |  | inhibition at 10 µM [1, 8]: > 50% |
| GRL-0617 |  |  |  | inhibition of viral polypeptide (Nsp1-2 FL) cleavage by Nsp3 [3]: able to inhibit cleavage of the viral polypeptide; IC50 [4]: ~2 µM; IC50 [5]: 0.6 µM |
| O=c1sn(-c2cccc3ccccc23)c(=O)n1Cc1ccccc1 [Tideglusib] | 0.21 µM | 1.48 µM | inhibited–at different extents–several other human DUBs | inhibition at 10 µM [1]: > 50% |
| CCN(CC)C(=S)SSC(=S)N(CC)CC [Disulfiram] | 0.69 µM | 0.66 µM | inhibited–at different extents–several other human DUBs | inhibition at 10 µM [1, 8]: > 50% |
| Auranofin |  | ~1 µM | inhibited–at different extents–several other human DUBs | IC50 ([1]; read-out: IC50 against PLpro): ~1 µM |
| NbSL18, recombinant, purified from bacteria (VHH) VHH: QVQLQESGGGLVQAGGSLRLSCAASGSIFLPGFMGWYRQAPGKERELVASITPGTTTNYADSVKGRFTISRDNAKNTVYLQMNSLKPEDTAVYYCAAYVFVYRNYWGQGTQVTVSS |  |  |  | Kd [7]: ~0.5 µM |
